Tests used:
A549 cells = assay: In vitro cytotoxicity assay (MTT), A549; conditions: Homo sapiens, A549, 48 h; for viability at 10 µM: read-out: percentage of cell viability, A549
Protocol: (§1) The selected cell lines include A549, a lung cancer cell line that is characterized by its high expression of EGFR; SKOV-3, an ovarian cancer cell line, selected for its overexpression of both EGFR and HER2; and the breast cancer cell line (SKBR-3), characterized by HER2 overexpression.
(§2) Cells were passaged regularly at around 80% confluency using […] and maintained in 75 cm^2 flasks at 37 °C in a humidified atmosphere containing 5% CO2.
(§3) Approximately 10 × 10^3 cells were seeded per well of the 96-well plates using drug-free media and incubated for 24 h. […] After 48 h of drug exposure, the supernatant was aspirated, and the cells were washed with 100 μL of PBS. The MTT assay was performed by creating a stock solution of MTT at a concentration of 5 mg/mL in PBS. From this stock, a solution of MTT in the cell culture media was prepared to achieve a final concentration of 0.5 mg/mL. […] The MTT solution was thereafter removed, and the generated formazan crystals were dissolved by adding 100 μL of propanol/DMSO (50:50) per well. Absorbance was measured at 570 nm, and IC50 values for each compound were calculated by comparison against negative untreated controls.

SKOV-3 cells = assay: In vitro cytotoxicity assay (MTT), SKOV-3; format: cell-based, human; conditions: Homo sapiens, MTT, 48 h; for viability at 10 µM: SK-OV-3, read-out: percentage of cell viability, SKOV-3
Protocol: as §1, §2, §3

SKBR-3 cells = assay: In vitro cytotoxicity assay (MTT), SKBR-3; format: cell-based, human; conditions: Homo sapiens, SK-BR-3, 48 h, MTT, 48 h; mean ± SD, three experiments
Protocol: as §1, §2, §3

[1] = In vitro cytotoxicity assay (MTT), normal cell line MRC-5; format: cell-based; conditions: MRC-5 normal embryonic lung cells, normal human embryonic lung cell line, mean ± SD
Protocol: as §2, §3

A2780 cells = assay: In vitro cytotoxicity assay (MTT), A2780; format: cell-based; conditions: Homo sapiens, 48 h, read-out: percentage of cell viability, A2780
[2] = tested on: A549, SKOV-3, A2780, SKBR-3 cells; assay: MTT assay, ranges stated over several cell lines; format: cell-based, human; conditions: Homo sapiens; 10 µM, 48 h; A549 and SKOV-3; read-out: cell viability range for A549 and SKOV-3
Protocol: as §1, §2, §3

## CS(=O)(=O)CCNCc1ccc(-c2ccc3ncnc(Nc4ccc(OCc5cccc(F)c5)c(Cl)c4)c3c2)o1 [Lapatinib, lapatinib, reference compound]
A549 cells; read-out: Cytotoxicity (IC50), A549, MTT, 48 h, mean ± SD, three experiments
  IC50: 11.6 ± 0.249 µM
SKOV-3 cells; SK-OV-3, 48 h, mean ± SD, three experiments
  IC50: 16.9 ± 2.57 µM
SKBR-3 cells
  IC50: 8.54 ± 0.64 µM
[1]
  IC50 at 48 h: 43.94 ± 0.42 µM

## O=C(N/N=C/c1ccccc1)c1ccc(Nc2ncnc3nc[nH]c23)cc1 [6a, (E)-4-((7H-Purin-6-yl)amino)-N′-benzylidenebenzohydrazide]
A549 cells
  viability at 10 µM: 63%
SKOV-3 cells
  viability at 10 µM: 85%

## N#Cc1ccc(/C=N/NC(=O)c2ccc(Nc3ncnc4nc[nH]c34)cc2)cc1 [7a, (E)-4-((7H-Purin-6-yl)amino)-N′-(4-cyanobenzylidene)benzohydrazide]
A549 cells
  viability at 10 µM: 50%
SKOV-3 cells
  viability at 10 µM: 58%

## O=C(N/N=C/c1ccccc1)c1ccc(Nc2ncnc3c2ncn3C2CCCC2)cc1 [6b, (E)-N′-benzylidene-4-((9-cyclopentyl-9H-purin-6-yl)amino)benzohydrazide]
A549 cells
  viability at 10 µM: 50%
SKOV-3 cells
  viability at 10 µM: 60%
A2780 cells
  viability at 10 µM: 52%

## COc1ccc(/C=N/NC(=O)c2ccc(Nc3ncnc4nc[nH]c34)cc2)cc1 [13a, (E)-4-((7H-Purin-6-yl)amino)-N′-(4-methoxybenzylidene)benzohydrazide]
A549 cells
  viability at 10 µM: 86%

## O=C(N/N=C/c1cccc(C(F)(F)F)c1)c1ccc(Nc2ncnc3nc[nH]c23)cc1 [16a, (E)-4-((7H-Purin-6-yl)amino)-N′-(3-(trifluoromethyl)benzylidene)benzohydrazide]
A549 cells
  viability at 10 µM: 68%
SKOV-3 cells
  viability at 10 µM: 69%

## O=C(N/N=C/c1cccc2ccccc12)c1ccc(Nc2ncnc3c2ncn3C2CCCC2)cc1 [23b, (E)-4-((9-cyclopentyl-9H-purin-6-yl)amino)-N′-(naphthalen-1-ylmethylene)benzohydrazide]
[2]
  viability at 10 µM: 81 to 100%

## O=C(N/N=C/c1ccc(F)c(C(F)(F)F)c1)c1ccc(Nc2ncnc3nc[nH]c23)cc1 [17a, (E)-4-((7H-Purin-6-yl)amino)-N′-(4-fluoro-3-(trifluoromethyl)benzylidene) benzohydrazide]
A549 cells
  viability at 10 µM: 59%
SKOV-3 cells
  viability at 10 µM: 63%

— paper PMC12299904, “Purine–Hydrazone Scaffolds as Potential Dual EGFR/HER2 Inhibitors” (Pharmaceuticals, 2025)
